What was measured:
[1] = biological target: T1, NanoLuc VHL fusion protein stably expressed in HEK 293 cells (Homo sapiens, UniProt P40337); assay: VHL HEK-293 BRET Assay (VHL NanoBRET Target Engagement Assay); type: cell-based; conditions: for IC50: HEK293 cells, nanoBRET, geometric mean where more than one measurement, read-out: VHL binding in cells (HEK293 nanoBRET); for Ratio cell permeability shift: ratio of nanoBRET in cells to nanoBRET +Digitonin
T1 construct: expressed in transfected cells
Procedure: The VHL NanoBRET™ Target Engagement Assay analyzes the apparent affinity of test compounds for VHL in cells by competitive displacement of a VHL NanoBRET™ tracer reversibly bound to a NanoLuc® VHL fusion protein stably expressed in the cells.
Test compounds were transferred to the assay plate (384 Well White Non-Binding Corning Assay Plates (Corning-3574)) using an Echo 555 Liquid Handler (Labcyte) in 2.5 nL increments and, as appropriate, intermediate stock concentrations of compounds, in order to prepare a titration series. 50 nL of control compound (10 mM; parental unlabeled VHL antagonist; see structure below) and 50 nL of DMSO (negative control) were dispensed into the appropriate control wells. DMSO was backfilled to a final volume of 50 nL as required. 50 nl per well of 1 mM VHL NanoBRET™ Tracer in DMSO (NanoBRET™ Tracer-PEG2-590 (see structure below)) was transferred into each well using an Echo 555 (ultimately yielding a final concentration of 1 uM). HEK 293 RT VHL-NanoLuc® stable cells were cultured in DMEM High Glucose with Pyruvate, 10% fetal bovine serum, 2 mg/mL of Geneticin Selective Antibiotic (50 mg/ml) and 2 mM HEPES (1 M). Cells were seeded in Opti-MEM (Life Technologies-11058-021), 1.7×10^5 cells/mL, 40 μl per well into the assay plate, centrifuged at 500 rpm for 30 seconds and incubated for 2 hours. Max Signal control wells consisted of DMSO only treated wells. Minimum Signal control wells contained of 10 uM parental unlabeled VHL antagonist (control compound—see structure below). 3× Complete Substrate plus Inhibitor Solution was prepared in Opti-MEM (consists of a 1:166 dilution of NanoBRET™ Nano-Glo® Substrate plus a 1:500 dilution of Extracellular NanoLuc® Inhibitor in Opti-MEM), and 20 ul was dispensed into each well of the 384-well plate and centrifuged at 1000 rpm for 1 minute, then incubated for 2 minutes at room temperature. Background Signal control wells were prepared without tracer for background correction steps.
Plates were read using a PerkinElmer Envision Reader (model 2104-0020) equipped with Luminescence option (Mirror: BRET2 Enh (PE Barcode 659), Emission Filter: Omega 610LP (Barcode 504), 2nd Emission Filter: Umbelliferone 460 (Barcode 207), Measurement height: 6.5 mm, Measurement time: 1 s). The raw BRET ratio values were calculated by dividing the acceptor emission value (610 nm) by the donor emission value (460 nm) for each sample. To correct for background, the BRET ratio in the absence of tracer (average of no-tracer control samples) was subtracted from the BRET ratio of each sample. Raw BRET units were converted to milliBRET units (mBU) by multiplying each raw BRET value by 1,000. The normalized NanoBRET™ signal was calculated relative to the Max Signal control wells (DMSO treated control wells) and the Minimum Signal control wells. Percentage inhibition was calculated relative to the Minimum Signal control and Maximum Signal control wells. IC50 values were derived by four parameter curve fitting using the Robust method.

[2] = biological target: T2, VHL (Homo sapiens, UniProt P40337); assay: VHL nanoBRET (+Digitonin); type: cell-based
T2 construct: expressed in transfected cells
T2 sequence (P40337 whole entry): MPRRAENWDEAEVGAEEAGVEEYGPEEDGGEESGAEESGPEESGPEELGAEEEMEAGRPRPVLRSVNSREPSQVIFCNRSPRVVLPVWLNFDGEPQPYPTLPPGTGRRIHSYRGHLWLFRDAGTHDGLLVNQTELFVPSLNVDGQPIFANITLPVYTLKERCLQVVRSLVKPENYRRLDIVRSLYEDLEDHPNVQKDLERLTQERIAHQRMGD
T2 sequence (Q15370 whole entry partner): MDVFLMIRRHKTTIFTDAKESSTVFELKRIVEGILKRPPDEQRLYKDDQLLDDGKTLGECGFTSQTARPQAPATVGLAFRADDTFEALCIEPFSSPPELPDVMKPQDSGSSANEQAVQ
T2 sequence (Q15369 whole entry partner): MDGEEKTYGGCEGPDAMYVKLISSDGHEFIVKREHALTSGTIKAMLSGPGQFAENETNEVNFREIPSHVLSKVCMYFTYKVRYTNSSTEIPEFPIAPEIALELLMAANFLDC

T1 sequence (P40337 whole entry, the tested form may be a part): as the sequence (P40337 whole entry) above
T1 sequence (Q15370 whole entry partner, the tested form may be a part): as the sequence (Q15370 whole entry partner) above
T1 sequence (Q15369 whole entry partner, the tested form may be a part): as the sequence (Q15369 whole entry partner) above

| SMILES | IC50 [1] [nM] | Ratio cell permeability shift [1] | EC50 [2] [nM] |
| --- | --- | --- | --- |
| CNC(=O)[C@@H]1C[C@@H](O)CN1C(=O)[C@H](C(C)C)n1nnc2ccccc21 (single isomer, unassigned) [Final product from Example S24] | 2150 | 0.76 | 2840 |
| CNC(=O)[C@@H]1C[C@@H](O)CN1C(=O)[C@H](C(C)C)n1cc(-c2ncco2)nn1 (single isomer, unassigned) [Final product from Example S30] | 920 | 0.95 | 970 |
| CNC(=O)[C@@H]1C[C@@H](O)CN1C(=O)[C@H](C(C)C)n1cc(-c2ccc(Cl)s2)nn1 [Final product from Example S40, (2S,4R)-1-((S)-2-(4-(5-chlorothiophen-2-yl)-1H-1,2,3-triazol-1-yl)-3-methylbutanoyl)-4-hydroxy-N-methylpyrrolidine-2-carboxamide] | 570 | 1.24 | 460 |
| CC(C)(C)[C@@H](C(=O)N1C[C@H](O)C[C@H]1C(=O)NCC(F)(F)F)n1cc(C2CC2)nn1 [Final product from Example S14, (2S,4R)-1-((S)-2-(4-cyclopropyl-1H-1,2,3-triazol-1-yl)-3,3-dimethylbutanoyl)-4-hydroxy-N-(2,2,2-trifluoroethyl)pyrrolidine-2-carboxamide] | 6550 | 1.24 | 5300 |
| CNC(=O)[C@@H]1C[C@@H](O)CN1C(=O)[C@H](C(C)C)n1cc(C2(C)CC2)nn1 [Final product from Example S20, (2S,4R)-4-hydroxy-N-methyl-1-((S)-3-methyl-2-(4-(1-methylcyclopropyl)-1H-1,2,3-triazol-1-yl)butanoyl)pyrrolidine-2-carboxamide] | 2120 | 1.71 | 1240 |
| CNC(=O)[C@@H]1C[C@@H](O)CN1C(=O)[C@H](C(C)C)n1nnc2cc(F)c(F)cc21 (single isomer, unassigned) [Final product from Example S26] | 1020 | 0.51 | 1980 |
| CNC(=O)[C@@H]1C[C@@H](O)CN1C(=O)[C@H](C(C)C)n1cc(-c2cncnc2)nn1 [Final product from Example S39, (2S,4R)-4-hydroxy-N-methyl-1-((S)-3-methyl-2-(4-(pyrimidin-5-yl)-1H-1,2,3-triazol-1-yl)butanoyl)pyrrolidine-2-carboxamide] | 1690 | 2.35 | 720 |
| CC(C)(C)[C@@H](C(=O)N1C[C@H](O)C[C@H]1C(=O)NC1(C(F)(F)F)CC1)n1cc(C2CC2)nn1 [Final product from Example S18, (2S, 4R)-1-((S)-2-(4-cyclopropyl-1H-1,2,3-triazol-1-yl)-3,3-dimethylbutanoyl)-4-hydroxy-N-(1-(trifluoromethyl)cyclopropyl)pyrrolidine-2-carboxamide] | 4990 | 1 | 4990 |
| CNC(=O)[C@@H]1C[C@@H](O)CN1C(=O)[C@H](C1CCN(S(C)(=O)=O)CC1)n1cc(C2CC2)nn1 [Final product from Example S10, (2S,4R)-1-((S)-2-(4-cyclopropyl-1H-1,2,3-triazol-1-yl)-2-(1-(methylsulfonyl)piperidin-4-yl)acetyl)-4-hydroxy-N-methylpyrrolidine-2-carboxamide] | 10000 | 4.83 | 2070 |
| CNC(=O)[C@@H]1C[C@@H](O)CN1C(=O)[C@H](C(C)C)n1cc(-c2cncs2)nn1 (single isomer, unassigned) [Final product from Example S33] | 900 | 0.80 | 1120 |
| CNC(=O)[C@@H]1C[C@@H](O)CN1C(=O)[C@H](C(C)C)n1cc(-c2cccnc2)nn1 [Final product from Example S36, (2S,4R)-4-hydroxy-N-methyl-1-((S)-3-methyl-2-(4-(pyridin-3-yl)-1H-1,2,3-triazol-1-yl)butanoyl)pyrrolidine-2-carboxamide] | 1220 | 1.21 | 1010 |
| CNC(=O)[C@@H]1C[C@@H](O)CN1C(=O)[C@H](C(C)C)n1cc(C2CCC2)nn1 [Final product from Example S21, (2S,4R)-1-((S)-2-(4-cyclobutyl-1H-1,2,3-triazol-1-yl)-3-methylbutanoyl)-4-hydroxy-N-methylpyrrolidine-2-carboxamide] | 2830 | 0.86 | 3290 |
| CNC(=O)[C@@H]1C[C@@H](O)CN1C(=O)[C@H](C1CCCCC1)n1cc(-c2ccco2)nn1 (single isomer, unassigned) [Final product from Example S23] | 320 | 0.68 | 470 |
| CNC(=O)[C@@H]1C[C@@H](O)CN1C(=O)[C@H](C1CCN(C)CC1)n1cc(C2CC2)nn1 [Final product from Example S8, (2S,4R)-1-((S)-2-(4-cyclopropyl-1H-1,2,3-triazol-1-yl)-2-(1-methylpiperidin-4-yl)acetyl)-4-hydroxy-N-methylpyrrolidine-2-carboxamide] |  | >10.00 | 10800 |
| CNC(=O)[C@@H]1C[C@@H](O)CN1C(=O)[C@H](C(C)C)n1cc(-c2cccs2)nn1 [Final product from Example S28, (2S, 4R)-4-hydroxy-N-methyl-1-((S)-3-methyl-2-(4-(thiophen-2-yl)-1H-1,2,3-triazol-1-yl)butanoyl)pyrrolidine-2-carboxamide] | 590 | 0.75 | 790 |
| CNC(=O)[C@@H]1C[C@@H](O)CN1C(=O)[C@H](C(C)C)n1cc(C2CC2)nn1 (single isomer, unassigned) [Isomer A from Example S11] | 3000 | 0.97 | 3100 |
| CNC(=O)[C@@H]1C[C@@H](O)CN1C(=O)[C@@H](C(C)C)n1cc(C2CC2)nn1 (single isomer, unassigned) [Isomer B from Example S11] | > 100000 |  | > 100000 |
| CC(C)NC(=O)[C@@H]1C[C@@H](O)CN1C(=O)[C@@H](n1cc(C2CC2)nn1)C(C)(C)C [Final product from Example S15, (2S,4R)-1-((S)-2-(4-cyclopropyl-1H-1,2,3-triazol-1-yl)-3,3-dimethylbutanoyl)-4-hydroxy-N-isopropylpyrrolidine-2-carboxamide] | 9090 | 1.52 | 5990 |
| CCNC(=O)[C@@H]1C[C@@H](O)CN1C(=O)[C@@H](n1cc(C2CC2)nn1)C(C)(C)C [Final product from Example S17, (2S,4R)-1-((S)-2-(4-cyclopropyl-1H-1,2,3-triazol-1-yl)-3,3-dimethylbutanoyl)-N-ethyl-4-hydroxypyrrolidine-2-carboxamide] | 4150 | 1.07 | 3890 |
| CNC(=O)[C@@H]1C[C@@H](O)CN1C(=O)[C@H](C(C)C)n1cc(-c2ccncc2)nn1 [Final product from Example S37, (2S,4R)-4-hydroxy-N-methyl-1-((S)-3-methyl-2-(4-(pyridin-4-yl)-1H-1,2,3-triazol-1-yl)butanoyl)pyrrolidine-2-carboxamide] | 1960 | 1.33 | 1470 |

— patent publication US12643884B2, “1-(2-(4-cyclopropyl-1H-1,2,3-triazol-1-yl)acetyl)-4-hydroxypyrrolidine-2-carboxa|mide derivatives as VHL inhibitors for the treatment of anemia” (Genentech, Inc., priority 2020, dated 2026)
